From a melting point compilation (Tetko et al.; mined from patent text by program, amines drawn as free bases though some values may be those of a salt)

| SMILES | melting point |
| --- | --- |
| COCN1C(=O)CN=C(c2ccccc2)c2cc(NO)ccc21 | 168 to 170 °C |
| C=CC[C@H]1Cc2c(OCOC)cccc2C(=O)O1 | 74 to 75 °C |
| O=C(O)Cc1nn(Cc2nc3cc(F)cc(F)c3s2)c(=O)c2ccccc12 | 178 °C |
| CC(=O)N(C(=O)OC(C)(C)C)c1ccc(-c2nc3n(Cc4c(F)cccc4F)c(C)c(Cc4ccccc4)c(=O)n3c2C)cc1 | 176 to 177 °C |
| CN(C)C(=O)c1cc(-c2ccccc2)c(=O)[nH]c1-c1c(Cl)cccc1C#N | 264 to 267 °C |
| Cn1c(-c2ccc(C(O)(C(F)(F)F)C(F)(F)F)cc2)cc2ccccc2c1=O | 265 to 266 °C |
| Cc1[nH]nc(Oc2ccc(C(F)(F)F)cc2[N+](=O)[O-])c1C | 92 to 95 °C |
| CC(C)CC1(C(CCN2C(=O)c3cccc([N+](=O)[O-])c3C2=O)C(=O)NO)CCN(CCc2ccccc2)C1=O (stereo not given) | 136 to 138 °C |
| CCOC(=O)C(=CNc1cnnn1C)C(=O)c1cc(F)c(Cl)nc1Cl | 187 to 189 °C |
| CCC(=O)NCCc1c[nH]c2ccc3c(c12)CCCO3 | 106 to 107 °C |
| CN(Cc1ccc(NC(=O)C2=Cc3cc(-c4ccc(OCC(N)=O)cc4)ccc3S(=O)(=O)CC2)cc1)C1CCOCC1 | 240 to 243 °C |
| O=C(O)c1cc2ncnn2nc1NCCCN1CCC(OC(c2ccccc2)c2ccccc2)CC1 | 207 to 209 °C |
| C/C(=C\c1ccc(C(=O)O)cc1)c1ccc(O)c(C23CC4CC(CC(C4)C2)C3)c1 | 245 to 246 °C |
| NC(=O)c1cccc(C=CC(=O)O)c1 | > 260 °C |
| COc1cc2cc(C(=O)O)[nH]c2c2c1OCCC2=O | 312 °C |
| CCCC1=C(C(=O)OCC)C(c2ccccc2Cl)c2cn(C(=O)c3ccccc3)nc2N1 (stereo not given) | 119 to 121 °C |
| CC(O)C#Cc1ncn2c1CN(C)C(=O)c1c(Cl)cccc1-2 (stereo not given) | 251 to 252 °C |
| O=C(O)CCCCCCOc1ccc(OCc2ccccc2)cc1 | 118 to 119 °C |
| NCc1ccc(-c2ccc(N(Cc3ccccc3)Cc3ccccc3)cc2)cc1 | 122 to 125 °C |
| O=C(Nc1cc(C2CC2)n[nH]1)c1ccccc1 | 234 °C |
| CCC(=O)OCC(=O)C1(OC(=O)c2ccccc2)CCC2C3CC(C)C4=CC(=O)C=CC4(C)C3C(O)CC21C (stereo not given) | 241 °C |
| CC(CS)C(=O)Nc1cncc(C(=O)O)c1 (stereo not given) | 160 to 165 °C |
| O=c1[nH]c2cccnc2n1-c1ccc2c(c1)OCO2 | 256 to 258 °C |
| CCCO[C@@H](C)C(=O)Oc1ccc(-c2ccc(O)cc2)cc1 | 120 °C |
| OCCC#Cc1ncccn1 | 58 to 64 °C |
| Cc1nc2cccnc2c(O)c1C(=O)c1ccccc1 | > 260 °C |
| CC(C)(C)OC(=O)NCOc1ccccc1C(=O)O | 141 to 144 °C |

| SMILES | melting point |
| --- | --- |
| CC(C)(C)OC(=O)[C@@H]1CCCN1C(=O)C1CCCC1SC(=O)c1ccccc1 (stereo not given in full) | 68 to 70 °C |
| COc1ccc(C2=NN(Cc3ccccc3Cl)C(=O)[C@H]3CCCC[C@@H]23)cc1OC (relative stereo) | 101 to 104 °C |
| C#CCNC(=O)c1cccc(-c2cccc(OCCc3ccc(OC)c(OC)c3)n2)c1 | 142 to 143 °C |
| CC(=O)N1C(=O)c2cccnc2N(C2CC2)c2nc(Cl)cc(C)c21 | 204 to 206 °C |
| CN1CC=C(c2c[nH]c3ccc(NC(=O)c4ccc(F)cc4Cl)cc23)CC1 | 212 to 222 °C |
| NS(=O)(=O)c1cc2cc(CCBr)ccc2s1 | 118 to 120 °C |
| NS(=O)(=O)OCCOc1cccc(-n2ccnc2)c1 | 149 to 150 °C |
| CCOC(=O)c1cc2ccc(SCc3ccc(OC)cc3)cc2nc1Cl | 110 to 112 °C |
| CCCn1c(=O)c2[nH]c(C(C)Cc3ccncc3)nc2n(CCC)c1=O (stereo not given) | 215 to 217 °C |
| CCc1cc(CC)nc(Sc2ccnc3cc(Cl)ccc23)n1 | 64.8 to 66 °C |
| CCn1c(C)c(C)c(=O)c(C(=O)O)c1-c1ccc(Cl)cc1 | 240 to 242 °C |
| c1ccc(CCNc2nccc3ccccc23)cc1 | 110 to 112 °C |
| COC(=O)c1sc2cc([N+](=O)[O-])ccc2c1N | 169 to 170 °C |
| CN(CCOc1ccc(Cl)c2c1CC(=O)N2)c1cccs1 | 203 to 204 °C |
| NS(=O)(=O)c1ccccc1S(=O)(=O)NC1CC1 | 202 to 203 °C |
| Cc1cccc(-c2ccc(C(=O)Nc3ccc4cc(CN5CCCC5)cnc4c3C)cc2)c1 | 151 to 152 °C |
| O=C(NCCCl)Nc1ccc2cn[nH]c2c1 | 253 to 258 °C |
| CN1CCCc2c(NC(=NC#N)NC(NC(=O)Cc3ccc(Cl)cc3)C(C)(C)C)cccc21 (stereo not given) | 114 to 117 °C |
| CC1(CC(=O)O)CCCCCC1=O (stereo not given) | 43 to 45 °C |
| O=C(O)C1=Cc2cc(Cl)cc(C#Cc3ccccc3)c2OC1C(F)(F)F (stereo not given) | 190 to 192 °C |
| O=C(CCNC1CC1)Nc1cc(-c2nnc(SCc3cccc(F)c3)o2)ccn1 | 102 to 103 °C |
| O=C(O)C=CC(=O)c1cccc([N+](=O)[O-])c1 | 199 to 201 °C |
| CS(=O)(=O)C(c1ccc(Cl)cc1)c1ccc(Cl)cc1 | 93 to 94.5 °C |
| O=C(O)CCCc1cc2nc(Cl)ccc2n1S(=O)(=O)c1ccc(-c2cscn2)cc1 | 211 to 217 °C |
| C/C(=C\C(N)=O)c1ccc2c(c1)C(C)(C)OC(=O)N2 | 198 to 200 °C |
| CCCCCCCCCCCOc1cccc(C(=O)O)c1 | 88 °C |
| CC(C)Cn1c(CNC(=O)OC(C)(C)C)c(-c2ccccc2F)c2cc(C(N)=O)ccc2c1=O | 232 to 233 °C |

| SMILES | melting point |
| --- | --- |
| CCC(=O)OCC(=O)C12OCOC1CC1C3CCC4=CC(=O)C=CC4(C)C3C(O)CC12C (stereo not given) | 184 to 185 °C |
| O=Cc1cc(Cl)cc(C(=O)O)c1O | 218 °C |
| CC(C)(C)OC(=O)NC(O)CCO (stereo not given) | 83 to 85 °C |
| CNC(=O)n1nc(Oc2c(Cl)cc(C(F)(F)F)cc2[N+](=O)[O-])cc1C | 140 to 142 °C |
| CC(C)(C)NC(=O)Nc1nc2nc(N)ncc2cc1-c1c(Cl)cccc1Cl | 335 °C |
| CN1C(=O)C(C(=O)Nc2cccc(F)c2)S(=O)(=O)c2ccccc21 (stereo not given) | 206 to 208 °C |
| O=C1CN2CCC(CC2)N1 | 121 to 122 °C |
| CCOc1nc(NC(CC)CC)c([N+](=O)[O-])c(OCC)n1 | 38 to 40 °C |
| CC(=Nc1ccc(NC(=O)[C@@H](N)CC(C)C)cc1)N(C)C | 106 to 107 °C |
| COc1ccc2cc(C(=O)C(C)OS(=O)(=O)c3ccc(C)cc3)ccc2c1 (stereo not given) | 85 to 87 °C |
| CCCC(=O)c1cnc2cc(Nc3ccc(O)cc3C)sc2c1 | 228 to 230 °C |
| NC(=O)CCCCCCBr | 84 °C |
| C=C(C)c1ccc(C(F)(F)C(F)(F)c2ccccc2)cc1 | 97 to 104 °C |
| Clc1cc(I)cnc1Cl | 55 to 57 °C |
| CSc1ccc(C=C2C(C)=C(CC(=O)O)c3cc(F)c(F)cc32)cc1 | 181 to 182 °C |
| O=C(SCC1C(=O)OCC1c1ccc(Cl)cc1)c1ccccc1 (stereo not given) | 99 to 101 °C |
| COC(=O)CC[C@H](NC(=O)c1ccc(NCCc2c(N(C(C)=O)C(C)=O)nc(NC(C)=O)[nH]c2=O)cc1)C(=O)OC | 168 to 178 °C |
| CC12CC(=O)C3C(CCC4CC(O)CCC43C)C1CCC2C(=O)CBr (stereo not given) | 160 to 163 °C |
| CC(C)(C)OC(=O)N1CCC(Nc2cccc(NC(=O)c3ccc(F)cc3)n2)CC1 | 82.7 °C |
| CC(C)CC(=O)CNC(=O)c1ccc(Cl)cc1 | 127 to 129 °C |
| Cn1cc(C(=O)O)cc1C(=O)OC(c1ccc2c(c1)OCO2)c1ccc2c(c1)OCO2 | 103 to 110 °C |
| CC(Cl)c1nc2c(C(F)(F)F)cccc2c(=O)o1 (stereo not given) | 112 °C |
| O=C(Nc1ccc(Cl)c(C(F)(F)F)c1)N[C@H]1CC[C@H](Oc2ccc(C(F)(F)F)cn2)CC1 | 176 to 178 °C |
| CCCCCCCCCc1nnc(C2=C(O)c3ccccc3S(=O)(=O)N2C)o1 | 61.5 to 62 °C |
| CC1(C)C(N)C(C)(C)S1(=O)=O | 104 to 106 °C |
| CC(Oc1cc(C(F)(F)F)cc(C(F)(F)F)c1)C(N)=O (stereo not given) | 84 to 85 °C |
| O=C(O)c1cccc(Oc2ccc(Br)cc2)c1 | 171 to 173 °C |

| SMILES | melting point |
| --- | --- |
| Cc1nc2c(N)cc(Br)cc2n1O | 257 to 258 °C |
| COc1ccc(C[C@](C)(N[C@@H](C(N)=O)c2ccccc2)C(N)=O)cc1 | 106 to 108 °C |
| CSc1ccc(NC(=O)C2C(=O)N(c3ccccc3)N=C2C)cc1 (stereo not given) | 196 to 199 °C |
| CCOC(=O)C1Cc2c([nH]c3ccc(C)cc23)C(c2ccccc2)N1 (stereo not given) | 128 to 130 °C |
| CS(=O)(=O)Nc1ccc(C=O)cc1F | 151 °C |
| CCSc1ccc(NC(=S)NC(=O)OC)c(N)c1 | 168 °C |
| CC(C)(CO)Nc1ccc2c(c1)C(=O)c1ccccc1C2=O | 218 to 220 °C |
| COc1cc(NCCCCCCN2CCCN(C)CC2)c2nccc(C)c2c1 | 137 to 139 °C |
| Cc1nc(-c2ccccc2N)[nH]c1-c1cccnc1 | 221 to 222 °C |
| CCSC1Oc2ccccc2C(=S)C1(C#N)C(N)=O (stereo not given) | 165 to 168 °C |
| CC(C)C(C(=O)O)c1ccc(Cl)cc1 (stereo not given) | 88 to 89 °C |
| CC(=O)Nc1ccc(Cl)c2c1C(=O)CCN2C(C)=O | 175 to 177 °C |
| O=CC1=Cc2cc(OCCCc3ccccc3)ccc2OC1 | 71 to 73 °C |
| C[C@H](NC(=O)c1ccc(Cn2nnc(-c3ccc(OC(=O)C(C)(C)C)cc3)n2)cc1)C(=O)O | 192 to 195 °C |
| CC(=O)OC1Oc2ccc(Br)cc2C1(C)C (stereo not given) | 73 to 80 °C |
| O=C(NCCC1OCCO1)c1cc(Br)c(Br)[nH]1 | 155 to 157 °C |
| COc1c(Cl)c(-c2ccc(C(C)C)cc2)cc2oc(=O)c(C)c(C)c12 | 168 °C |
| O=Cc1ccc(OCCC2Oc3ccccc3N(Cc3cccc(Cl)c3)C2=O)cc1 (stereo not given) | 130 to 131 °C |
| Oc1cccc(C2CN=C(c3ccccn3)O2)c1 (stereo not given) | 139 to 141 °C |
| O=C(c1ccc(-c2cccc3ccccc23)nc1)N1Cc2cccn2Cc2ccccc21 | 155 to 158 °C |
| CCc1[nH]c(=S)n(Nc2cccc(Cl)c2)c1-c1ccccc1 | 116 to 118 °C |
| Cc1nc2c([nH]1)N(Cc1ccc(Cl)cc1)C1=NC(C)CN1C2=O (stereo not given) | 290 to 291 °C |
| COC(=O)CCC(=O)c1ccc(-c2ccc(Cl)cc2F)cc1 | 90.5 to 92.5 °C |
| NS(=O)(=O)c1ccc2c(c1)S(=O)(=O)NC1CCCN21 (stereo not given) | 260 to 262 °C |
